The numbers were not newly measured in patent US6476012B2, “Estradiol-16α-carboxylic acid esters as locally active estrogens” (Yale University, priority 2001, dated 2002), which cites them from elsewhere.

In one data set the target is ERβ (Homo sapiens, UniProt Q92731). The conditions noted are these: previously reported; cited from earlier work.
In another data set the target is T1, classical ER, ERα (Homo sapiens, UniProt P03372).
T1 sequence (P03372 1-595): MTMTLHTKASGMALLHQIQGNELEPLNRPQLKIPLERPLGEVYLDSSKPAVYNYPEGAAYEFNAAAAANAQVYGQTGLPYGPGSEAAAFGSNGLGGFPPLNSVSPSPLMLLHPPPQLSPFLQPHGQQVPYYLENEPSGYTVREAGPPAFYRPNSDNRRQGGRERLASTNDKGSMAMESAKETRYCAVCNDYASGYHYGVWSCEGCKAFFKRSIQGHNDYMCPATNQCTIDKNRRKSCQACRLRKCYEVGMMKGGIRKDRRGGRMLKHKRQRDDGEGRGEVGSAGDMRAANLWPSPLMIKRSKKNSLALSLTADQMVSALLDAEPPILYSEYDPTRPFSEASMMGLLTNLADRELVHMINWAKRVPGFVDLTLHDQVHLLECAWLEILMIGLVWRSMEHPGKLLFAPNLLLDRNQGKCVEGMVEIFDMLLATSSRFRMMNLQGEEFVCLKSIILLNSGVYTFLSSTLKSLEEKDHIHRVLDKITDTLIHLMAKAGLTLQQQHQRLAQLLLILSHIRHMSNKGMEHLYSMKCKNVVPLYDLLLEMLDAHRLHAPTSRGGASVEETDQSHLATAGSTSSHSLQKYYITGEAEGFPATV
Particulars: previously reported; cited from earlier work.

ERβ, sequence (Q92731 whole entry, species assumed): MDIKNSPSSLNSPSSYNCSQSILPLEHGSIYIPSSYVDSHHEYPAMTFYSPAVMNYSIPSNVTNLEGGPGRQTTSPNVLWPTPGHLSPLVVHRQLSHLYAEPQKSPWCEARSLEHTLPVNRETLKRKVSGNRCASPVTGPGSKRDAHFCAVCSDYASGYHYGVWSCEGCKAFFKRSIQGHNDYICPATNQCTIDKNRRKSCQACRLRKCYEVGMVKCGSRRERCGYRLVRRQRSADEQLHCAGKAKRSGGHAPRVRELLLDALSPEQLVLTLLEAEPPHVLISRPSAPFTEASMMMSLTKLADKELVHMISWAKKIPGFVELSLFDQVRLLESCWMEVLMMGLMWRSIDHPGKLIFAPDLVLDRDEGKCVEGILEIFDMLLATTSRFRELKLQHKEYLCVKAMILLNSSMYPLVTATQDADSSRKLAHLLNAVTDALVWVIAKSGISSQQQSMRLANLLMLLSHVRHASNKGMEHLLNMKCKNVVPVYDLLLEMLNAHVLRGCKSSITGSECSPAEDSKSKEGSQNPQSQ

Turning to `C[C@]12CC[C@@H]3c4ccc(O)cc4CC[C@H]3[C@@H]1C[C@@H](I)[C@@H]2O` [16α-iodoestradiol], the “binding to ERβ” value at ERβ is recorded as “binds only poorly”. Besides, at classical ER, ERα, the “binding to ERα” value is “binds with high affinity”.
